Reference: patent EP4755892A1, “KINESIN KIF18A INHIBITOR AND USE THEREOF” (Shanghai Apeiron Therapeutics Company Limited, priority 2023, dated 2025)
Read-outs that look alike come from different tables or passages of the source.

Tests used:
[1] = target: T1, Human KIF18A (amino acid sequence 1-417) (Homo sapiens, UniProt Q8NI77); test: Enzymatic Activity Test (ADP-Glo, microtubule-stimulated KIF18A ATPase); format: biochemical; settings: 60 µg/mL microtubules, 25 µM ATP, 2.5 nM KIF18A protein, 120 min at ambient temperature, chemiluminescence; read-out: KIF 18A IC50
T1 construct: purchased Viva Biotech (Shanghai) Ltd
T1 sequence (Q8NI77 1-417): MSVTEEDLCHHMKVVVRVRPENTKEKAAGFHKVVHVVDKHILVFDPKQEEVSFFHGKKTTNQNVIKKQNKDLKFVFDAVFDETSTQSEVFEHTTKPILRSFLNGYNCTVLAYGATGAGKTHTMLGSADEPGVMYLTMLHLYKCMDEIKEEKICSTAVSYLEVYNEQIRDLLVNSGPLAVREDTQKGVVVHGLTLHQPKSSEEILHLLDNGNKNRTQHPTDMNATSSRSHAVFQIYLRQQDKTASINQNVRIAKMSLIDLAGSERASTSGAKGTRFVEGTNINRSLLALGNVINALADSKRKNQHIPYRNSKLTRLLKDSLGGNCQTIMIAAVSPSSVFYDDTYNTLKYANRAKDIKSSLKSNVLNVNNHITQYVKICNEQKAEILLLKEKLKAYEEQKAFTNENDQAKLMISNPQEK
Description: Assay 1: Enzymatic Activity Test
Materials: Human KIF18A (amino acid sequence 1-417) was purchased from Viva Biotech (Shanghai) Ltd.; the ADP-Glo™ protein kinase kit was acquired from Promega, USA; tubulin was sourced from Cytoskeleton, USA; and the 384-well assay plate and Envision multifunctional microplate reader were obtained from PerkinElmer, USA.
Enzymatic Activity Test: The compound powder was dissolved in DMSO to prepare a stock solution of 10 mM. Then gradient dilution was performed for the compounds in the microplate to achieve a final concentration of 0-10 µM. Then, 2.5 µL each of tubulin, compound, ATP, and KIF18A protein were added to the microplate in sequence for reaction at ambient temperature for 120 min. The final concentrations in the enzyme reaction were 60 µg/mL for microtubules, 25 µM for ATP, and 2.5 nM for KIF18A protein. After the enzyme reaction, 10 µL of ADP-GLO reaction reagent was added to each well and incubated at room temperature for 30 min. After that, 20 µL of detection reagent was added to each well and incubated at room temperature for 30 min in the dark. Finally, chemiluminescence detection was performed using the PerkinElmer Envision.

OVCAR3 cells = test: Cell Proliferation Activity Test (CyQUANT Direct), OVCAR3; format: cell-based; settings: compound 0-10 µM, 3 days, 0.2% DMSO, CyQUANT fluorescence, read-out: OVCAR-3 _IC50_nM
Description: Assay 2: Cell Proliferation Activity Test
Materials and Cells: OVCAR3 cells were purchased from Nanjing Cobioer Biosciences Co., Ltd. RPMI-1640 medium, fetal bovine serum, and the CyQUANT Direct Cell Proliferation Assay kit were purchased from Thermo Fisher Scientific, USA; 96-well cell culture plates were sourced from Coming, USA.
Cell Culture: OVCAR3 cells were cultured with RPMI-1640 medium containing 10% fetal bovine serum and incubated in a 5% CO2 incubator at 37°C. Only cells in the logarithmic growth phase could be used for the test.
Cell Proliferation Activity Test:
OVCAR3 cells were inoculated into a 96-well cell culture plate at 90 µL per well and incubated overnight in a 5% CO2 incubator at 37°C. The compound powder was dissolved in DMSO to prepare a stock solution of 10 mM. Then gradient dilution was performed for the compounds in the microplate to achieve a final concentration of 0-10 µM. 10 µL of cell culture medium containing compounds was added to each well to make the final DMSO content 0.2%. The cell plates were incubated in a 5% CO2 incubator at 37°C for 3 days. 100 µL of CyQUANT detection reagent was added to each well, reacted at 37°C for 60 min, and fluorescence detection was performed using the PerkinElmer Envision.

HT29 cells = test: CyQuant Cell Proliferation Activity Test, HT29; format: cell-based; settings: HT29 cells 2000 per well, initial concentration 3000 nM, 3-fold dilution, 3 days, 0.2% DMSO, read-out: HT29_IC50 _nM
Description: Assay 3: CyQuant Cell Proliferation Activity Test
Materials and Cells: HT29 cells were purchased from Nanjing Cobioer Biosciences Co., Ltd.; RPMI-1640 medium, fetal bovine serum, Trypsin-EDTA (0.25%), 96-well plates, and CyQuant reagents were purchased from ThermoFisher (USA); DMSO was purchased from SIGMA (USA).
Cell Culture: HT29 cells were cultured with RPMI-1640 containing 10% fetal bovine serum under the condition of 37°C and 5% CO2. Only cells in the logarithmic growth phase could be used for the test.
Cell Proliferation Activity Test: CyQuant reagent was used to detect the proliferation inhibitory activity of compounds on HT29 cells. The cell density was adjusted, and 100 µL per well was inoculated into a 96-well plate (HT29 at 2000 cells per well), then incubated overnight at 37°C and 5% CO2. Add compounds of various target concentrations (initial concentration of 3000 nM, 3-fold dilution, 9 concentration gradients), and make the DMSO content 0.2%. The cell plate was incubated at 37°C in 5% CO2 for 3 days. CyQuant reagent was added and incubated for 1 h. The plates were read by Envision, and IC50 was calculated using XLFIT.

| Compound | IC50 [1] [nM] | IC50 (OVCAR3 cells) [nM] | IC50 (HT29 cells) [nM] | IC50 (OVCAR3 cells; Homo sapiens, OVCAR-3, 72 h) [nM] | IC50 (HT29 cells; Homo sapiens, HT-29, 72 h) [nM] |
| --- | --- | --- | --- | --- | --- |
| Cc1cc2nc(n1)N1CCC(F)(F)C(C=CCC3CCN(CC3)c3cc(NS(=O)(=O)CCO)ccc3C(=O)N2)C1 (stereo not drawn) [Example 18D, N-((1^3R,Z)-1^4,1^4-difluoro-2^6-methyl-4-oxo-3-aza-2(2,4)-pyrimidin-1(1,3),6(1,4)-dipiperidin-5(1,2)-benzeneheterocyclononane-8-en-5^4-yl)-2-hydroxyethane-1-sulfon amide] | 345 | 458 | 660 |  |  |
| Cc1cc2nc(n1)N1CCC(F)(F)C(CC=CC3CCN(CC3)c3cc(NS(=O)(=O)CCO)ccc3C(=O)N2)C1 (stereo not drawn) [Example 19, (E)-N-(1^4,1^4-difluoro-2^6-methyl-4-oxo-3-aza-2(2,4)-pyrimidin-1(1,3),6(1,4)-dipiperidin-5(1,2)-benzeneheterocyclonon-7-en-5^4-yl)-2-hydroxyethane-1-sulfonamide] | 184 |  |  | 703 | 644 |
| Cc1cc2nc(n1)N1CCC(F)(F)C(CCC=C3CCN(CC3)c3cc(NS(=O)(=O)CCO)ccc3C(=O)N2)C1 (stereo not drawn) [Example 20, N-(1^4,1^4-difluoro-2^6-methyl-4-oxo-3-aza-2(2,4)-pyrimidin-1(1,3),6(1,4)-dipiperidin-5(1,2)-benzeneheterocyclononane-5^4-yl)-2-hydroxyethane-1-sulfonamide] | 2920 |  |  | > 3000 | > 3000 |
| Cc1cc2nc(n1)N1CCC(F)(F)C(=CCCC3CCN(CC3)c3cc(NS(=O)(=O)CCO)ccc3C(=O)N2)C1 [Example 21, N-(1^4,1^4-difluoro-2^6-methyl-4-oxo-3-aza-2(2,4)-pyrimidin-1(1,3),6(1,4)-dipiperidin-5(1,2)-benzeneheterocyclonon-9-en-5^4-yl)-2-hydroxyethane-1-sulfonamide] | 305 |  |  | 744 | 703 |
| Cc1cc2nc(n1)N1CCC(F)(F)C(CCCC3CCN(CC3)c3cc(NS(=O)(=O)CCO)ccc3C(=O)N2)C1 (stereo not drawn) [Example 23, N-(1^4,1^4-difluoro-2^6-methyl-4-oxo-3-aza-2(2,4)-pyrimidin-1(1,3),6(1,4)-dipiperidin-5(1,2)-benzeneheterocyclononane-5^4-yl)-2-hydroxyethane-1-sulfonamide] | 102 | 52 | 47 |  |  |
| Cc1cc2nc(n1)N1CCC(F)(F)C(CCCC3CCN(CC3)c3cc(NS(=O)(=O)CCO)ccc3C(=O)N2)C1 (stereo not drawn) [Example 23A, N-((1^3S)-1^4,1^4-difluoro-2^6-methyl-4-oxo-3-aza-2(2,4)-pyrimidin-1(1,3),6(1,4)-dipiperidin-5(1,2)-benzeneheterocyclononane-5^4-yl)-2-hydroxyethane-1-sulfonamide] | 522 | 662 | 688 |  |  |
| Cc1cc2nc(n1)N1CCC(F)(F)C(CCCC3CCN(CC3)c3cc(NS(=O)(=O)CCO)ccc3C(=O)N2)C1 (stereo not drawn) [Example 23B, N-((1^3R)-1^4,1^4-difluoro-2^6-methyl-4-oxo-3-aza-2(2,4)-pyrimidin-1(1,3),6(1,4)-dipiperidin-5(1,2)-benzeneheterocyclononane-5^4-yl)-2-hydroxyethane-1-sulfonamide] | 71.5 | 28 | 32 |  |  |
| COc1cc2nc(n1)N1CCC(F)(F)C(C=CCC3CCN(CC3)c3cc(NS(=O)(=O)CCO)ccc3C(=O)N2)C1 (stereo not drawn) [Example 24, (Z)-N-(1^4,1^4-difluoro-2^6-methoxy-4-oxo-3-aza-2(2,4)-pyrimidin-1(1,3),6(1,4)-dipiperidin-5(1,2)-benzeneheterocyclonon-8-en-5^4-yl)-2-hydroxyethane-1-sulfonamide] | 158 |  |  | 46 | 63 |
| Cc1cc2nc(n1)N1CCOC(C=CCC3CCN(CC3)c3cc(NS(=O)(=O)CCO)ccc3C(=O)N2)C1 (stereo not drawn) [Example 25, 2-Hydroxy-N-((1^2S)-2^6-methyl-4-oxo-3-aza-1(4,2)-morpholin-2(2,4)-pyrimidin-6(1,4)-piperidin-5(1,2)-benzeneheterocyclonon-8-en-5^4-yl)ethane-1-sulfonamide] | 13 |  |  | 8.5 | 10.9 |
| Cc1cc2nc(n1)N1CCCC(C1)C(=O)NCC1CCN(CC1)c1cc(NS(=O)(=O)CCO)ccc1C(=O)N2 (stereo not drawn) [Example 27, N-(2^6-methyl-4,9-dioxo-3,8-diaza-2(2,4)-pyrimidin-1(1,3),6(1,4)-dipiperidin-5(1,2) -benzeneheterocyclononane-5^4-yl)-2-hydroxyethane-1-sulfonamide] | 265 |  |  | 1480 | > 3000 |
| Cc1cc2nc(n1)N1CCCC(COCC3CCN(CC3)c3cc(NS(=O)(=O)CCO)ccc3C(=O)N2)C1 (stereo not drawn) [Example 28, 2-Hydroxy-N-(2^6-methyl-4-oxo-8-oxa-3-aza-2(2,4)-pyrimidin-1(1,3),6(1,4)-dipiperidin-5(1,2)-benzeneheterocyclononane-5^4-yl)ethane-1-sulfonamide] | 229 |  |  | 506 | 639 |
